Results as given in US8288396B2, “Pyrimidopyrimidoindazole derivative” (MSDKK, priority 2009, dated 2012).
pEC50, pIC50: −log10 of the molar value.

Assays:
Wee1 kinase = molecular target: T1, Wee1 kinase (Homo sapiens, UniProt P30291); experiment: Wee1 kinase inhibitory effect (Pharmacological Test 1); format: biochemical; settings: GST-tagged Wee1 kinase, Poly(Lys, Tyr) substrate, 10 μM ATP, 30° C. for 30 minutes
T1 construct: made in house; host or cells: Sf9 insect cells (recombinant baculovirus)
T1 sequence (P30291 whole entry): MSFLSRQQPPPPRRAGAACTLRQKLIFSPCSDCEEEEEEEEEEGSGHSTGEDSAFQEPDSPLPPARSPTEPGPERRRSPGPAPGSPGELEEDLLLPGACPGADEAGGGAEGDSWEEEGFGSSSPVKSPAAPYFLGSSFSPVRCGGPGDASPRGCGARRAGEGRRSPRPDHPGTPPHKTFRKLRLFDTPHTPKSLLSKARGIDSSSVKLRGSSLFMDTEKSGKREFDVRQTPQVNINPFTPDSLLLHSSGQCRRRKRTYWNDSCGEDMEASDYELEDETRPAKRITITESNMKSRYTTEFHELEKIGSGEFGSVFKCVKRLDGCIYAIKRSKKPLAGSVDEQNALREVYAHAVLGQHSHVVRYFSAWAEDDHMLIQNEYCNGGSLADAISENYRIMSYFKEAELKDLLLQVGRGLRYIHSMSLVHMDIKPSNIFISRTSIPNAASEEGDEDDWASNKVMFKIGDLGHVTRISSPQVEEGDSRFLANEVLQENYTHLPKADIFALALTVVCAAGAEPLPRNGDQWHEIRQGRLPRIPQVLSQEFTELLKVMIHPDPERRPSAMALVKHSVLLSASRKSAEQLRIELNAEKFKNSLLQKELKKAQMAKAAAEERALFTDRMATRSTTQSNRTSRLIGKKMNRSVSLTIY
Text: Pharmacological Test 1 (Wee1 Kinase Inhibitory Effect)
(1) Purification of Wee1 Kinase
A cDNA of Wee1 kinase with […] (GST) fused at the amino terminal thereof was inserted into a baculovirus expression vector to construct a recombinant baculovirus, with which cells of an insect cell line Sf9 were infected to overexpress the target protein. The infected cells were collected and lysed, and then the GST-tagged Wee1 kinase protein was adsorbed to a glutathione column and eluted from the column with glutathione, and the active fraction was desalted in a desalting column to give a purified enzyme.
(2) Measurement of Wee1 Kinase Activity
In measurement of the Wee1 kinase activity, a synthetic peptide, Poly(Lys, Tyr) hydrobromide (Lys:Tyr (4:1)) purchased from Sigma was used as the substrate.
The amount of the reaction mixture was 21.1 μL; and the composition of the reaction buffer was 50 mM Tris-HCl buffer (pH 7.4)/10 mM magnesium chloride/1 mM dithiothreitol. The purified Wee1 kinase, 2.5 μg of the substrate peptide, 10 μM of non-labeled adenosine triphosphate (ATP) and 1 μCi of [γ-^33P]-labeled ATP (2500 Ci/mmol or more) were added to the reaction buffer, and the resulting mixture was incubated at 30° C. for 30 minutes. Thereafter, 10 μL of 350 mM phosphate buffer was added to the reaction system to stop the reaction. The substrate peptide was adsorbed on a P81 paper filter 96-well plate and the plate was washed several times with 130 mM phosphate buffer, and the radioactivity thereof was counted using a liquid scintillation counter. The [γ-^33P]-labeled ATP was purchased from Amersham Bioscience, Ltd.
The addition of a test compound to the reaction system was carried out by preparing a series of dilutions of the compound with dimethyl sulfoxide (DMSO) and adding 1.1 μL of each dilution to the reaction system. As a control, 1.1 μL of DMSO was added to the reaction system.

[1] = test system: Cdc2 (Cdk1) tyrosine-15 phosphorylation; experiment: Inhibitory effect on Cdc2 (Cdk1) tyrosine-15 phosphorylation in NCI-H1299 cells (Pharmacological Test 2); format: cell-based; settings: Homo sapiens, camptothecin 200 nM 16 hours, then test compound with nocodazole 8 hours, ELISA, read-out: Cdc2-Y15 Phosphorylation-Inhibitory Effect (H1299, +camptothecin) (EC50)
Text: Pharmacological Test 2 (Method for Determining Drug Effect Using Cells (Inhibitory Effect on Cdc2 (Cdk1) Tyrosine-15 Phosphorylation))
Fetal bovine serum (FBS) was purchased from Morgate, Inc.; an RPMI-1640 medium and a DMEM medium were purchased from Invitrogen, Inc.; camptothecin was purchased from Sigma Co.; gemcitabine was purchased from Eli Lilly Japan K.K.; nocodazole and protease inhibitor cocktail were purchased from Sigma Co.; a rabbit anti-Cdc2 antibody and a mouse anti-Cdc2 antibody were purchased from Santa Cruz Biotechnology, Inc.; a rabbit anti-tyrosine-15-phosphorylated Cdc2 antibody and a horseradish peroxidase-labeled anti-mouse IgG antibody were purchased from Cell Signaling Technology, Inc.; and Sure Blue Reserve TMB peroxidase substrate was purchased from Kirkegaard & Perry Laboratories, Inc.
A human non-small cell lung cancer cell line (NCI-H1299) and a human colon cancer cell line (WiDr) can be obtained from American Type Culture Collection (ATCC).
In the method using NCI-H1299 cells, the cells were suspended in an RPMI-1640 medium supplemented with 10% FBS, and 100 μL of the resulting cell suspension was dispensed in a Nunclon Delta treated 96-well plastic plate purchased from Nunc, Inc. at a density of 2000 cells per well, and the plate was incubated overnight at 37° C. under an atmosphere of 5% CO2 and 95% air. Camptothecin was dissolved in dimethyl sulfoxide (DMSO) and further the resulting solution was diluted with an RPMI-1640 medium supplemented with 10% FBS. Then, 50 μL of the diluted solution was added to each well of the plate in which the cells were seeded in advance such that the final concentration of camptothecin was 200 nM, and the plate was incubated at 37° C. under an atmosphere of 5% CO2 and 95% air for 16 hours. A test compound was serially diluted with DMSO, and further diluted with an RPMI-1640 medium supplemented with 10% FBS containing 4000 nM nocodazole. Then, 50 μL of the test compound solution was added to each well of the plate in which the cells treated with camptothecin were seeded, and the plate was incubated at 37° C. under an atmosphere of 5% CO2 and 95% air for 8 hours. Then, the culture medium was removed from each well and 100 μL of a cell lysis buffer was added to each well, and the plate was shaken at 4° C. for 2 hours, and thereafter the liquid in the plate was frozen at −80° C. and then thawed, which was used as a lysed cell solution. Cdc2 and tyrosine-15-phosphorylated Cdc2 in this lysed cell solution were measured by an enzyme-linked immunosorbent assay (ELISA method), and a ratio of tyrosine-15-phosphorylated Cdc2 to Cdc2 was calculated to determine a 50% effective concentration (EC50, nM) of the test compound for inhibition of phosphorylation in cells. The cell lysis buffer as used herein is an aqueous solution containing 20 mM HEPES (pH 7.5), 150 mM sodium chloride, 1 mM disodium ethylenediamine tetraacetate, 0.1% polyoxyethylene (10) octylphenyl ether, 1% protease inhibitor cocktail, 1 mM dithiothreitol, 2 mM sodium orthovanadate, 10 mM sodium fluoride and 10 mM glycerol diphosphate. The measurement of Cdc2 by the ELISA method was carried out as follows. 50 μL of a solution of a rabbit anti-Cdc2 antibody obtained by diluting the antibody to 200 times with 50 mM carbonate-bicarbonate buffer (pH 9.6) was dispensed into each well of a 96-well Maxisorb immunoplate purchased from Nunc, Inc., and the immunoplate was let stand overnight at 4° C. to immobilize the antibody thereto. Subsequently, each well was washed three times with phosphate buffered saline (PBS), and 300 μL of PBS containing 5% bovine serum albumin (5% BSA/PBS) was added to each well, and then, the immunoplate was let stand at room temperature for 2 hours. […]

SMILES	pIC50 (Wee1 kinase)	pEC50 [1]
CN(C)CCN1CCOc2cc(Nc3ncc4c(=O)n5c(nc4n3)c3ccccc3n5-c3nccs3)ccc21 [Example 143, 2-({4-[2-(dimethylamino)ethyl]-3,4-dihydro-2H-1,4-benzoxazin-7-yl}amino)-7-(1,3-thiazol-2-yl)pyrimido[4′,5′:4,5]pyrimido[1,2-b]indazol-5(7H)-one]	7.82	6.72
CN(C)[C@H]1CCN(c2ccc(Nc3ncc4c(=O)n5c(nc4n3)c3ccccc3n5-c3ncccn3)cc2)C1 [Example 79, 2-({4-[(3S)-3-(dimethylamino)pyrolidin-1-yl]phenyl}amino)-7-(pyrimidin-2-yl)pyrimido[4′,5′:4,5]pyrimido[1,2-b]indazol-5(7H)-one]	7.62	6.43
Cc1cc(Nc2ncc3c(=O)n4c(nc3n2)c2ccccc2n4-c2ncccn2)ccc1OCCN(C)C [Example 90, 2-({4-[2-(dimethylamino)ethoxy]-3-methylphenyl}amino)-7-(pyrimidin-2-yl)pyrimido[4′,5′:4,5]pyrimido[1,2-b]indazol-5(7H)-one]	7.52	6.60

The next lines start with the values.

pIC50 (Wee1 kinase)	pEC50 [1]	SMILES
7.82	6.72	CN(C)CCN1CCc2cc(Nc3ncc4c(=O)n5c(nc4n3)c3ccccc3n5-c3nccs3)ccc21 [Example 144, 2-({1-[2-(dimethylamino)ethyl]-2,3-dihydro-1H-indol-5-yl}amino)-7-(1,3-thiazol-2-yl)pyrimido[4′,5′:4,5]pyrimido[1,2-b]indazol-5(7H)-one]
8.24	6.77	CN1CCN(c2ccc(Nc3ncc4c(=O)n5c(nc4n3)c3ccccc3n5-c3ccoc3)cc2)CC1 [Example 147, 7-(furan-3-yl)-2-{[4-(4-methylpiperazin-1-yl)phenyl]amino}pyrimido[4′,5′:4,5]pyrimido[1,2-b]indazol-5(7H)-one]
